In patent US10941114B2, “Small molecule lipid II inhibitors” (University Of Maryland, Baltimore, priority 2015, dated 2021):
In brackets after ≈: the same amount, converted by molar mass. Counter-ions that a name gives are not always drawn. Like-named read-outs stand apart in the source and are kept apart here.

Experiments:
[1] = Liver microsome stability testing; format: in vitro ADME; details: positive control; human liver microsomes
Description: The in vitro microsome stability assay was performed using human liver microsomes and a Biomek FXP™ liquid handling workstation to deliver reagents to a deep 96-well plate on a shaking peltier with temperature controls. Human liver microsomes were purchased from Corning™. The test compound was incubated in an aqueous reaction mixture (200 μL total volume) consisting of human liver microsomes (150 mixed donor pool) and NADPH Regenerating System Solutions A and B (Corning™) in the presence of 100 mM potassium phosphate buffer (pH 7.4). NADPH Regenerating System Solution A comprises nicotinamide adenine dinucleotide phosphate (NADP+) and glucose 6-phosphate; NADPH Regenerating System Solution B contains glucose-6-phosphate dehydrogenase. Solutions A and B were combined prior to adding to the reaction plate to generate a supply of NADPH. The NADPH was added last to initiate the reactions simultaneously. The final concentration of the test compound was 10 μM and the microsomal protein concentration was 0.5 mg/mL. […]
The half-life (t½) was calculated using the following equation:
[formula] where “slope” is the slope of the line formed by ln(% remaining test compound) vs. time. The in vitro intrinsic clearance (CLint) was calculated using equation: […]

Staphylococcus aureus = experiment: Antibacterial activity assay (MIC, broth dilution); format: cell-based; parameters: S. aureus Killing / Bacterial Killing S. aureus: unit not given here; details: for MIC: Staphylococcus aureus; for MIC Staphylococcus aureus: MMX#-ATCC# 100-29213
Enterococcus faecium = experiment: Antibacterial activity assay (MIC, broth dilution); format: cell-based; parameters: Bacterial Killing E. faecium: unit: ug/mL
Procedure, shortened: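 Broth dilution MIC per CLSI (M07-A10) in cation-adjusted Mueller Hinton broth with 10% brain-heart infusion; MIC is the lowest concentration preventing visible growth, in μg/mL. Some compounds were run by broth microdilution.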

[2] = Cytotoxicity testing (CC50, MTS assay); details: human
Acinetobacter baumannii = experiment: Antibacterial activity assay (MIC, broth dilution); format: cell-based; details: Acinetobacter baumannii
Description: Determination of the Minimal Inhibitory Concentrations (MIC) by dilution was carried out by broth dilution according to CLSI standards. See CLSI, Methods for Dilution Antimicrobial Susceptibility Tests for Bacteria That Grow Aerobically; Approved Standard—Eighth Edition. 2009, the contents of which are hereby incorporated by reference. Briefly, the minimum inhibitory concentration MIC, is the lowest concentration of a compound that prevents visible growth of a bacterium, in other words at which it has bacteriostatic activity.
Compounds were tested for MIC by methods known in the art and described in CLSI, Methods for Dilution Antimicrobial Susceptibility Tests for Bacteria That Grow Aerobically; Approved Standard—Tenth Edition. CLSI document M07-A10. Wayne, Pa.: Clinical and Laboratory Standards Institute, 2015, which is hereby incorporated by reference for these methods.
Selected compounds also were tested by broth microdilution methods known in the art and described in CLSI, Methods for Dilution Antimicrobial Susceptibility Tests for Bacteria That Grow Aerobically; Approved Standard—Tenth Edition. CLSI document M07-A10. Wayne, Pa.: Clinical and Laboratory Standards Institute, 2015, which is hereby incorporated by reference. Structures of selected compounds in the tables are listed below.

in vivo [3] = details: both, ICR, mouse
Escherichia coli = experiment: Antibacterial activity assay (MIC, broth dilution); format: cell-based; details: for MIC Escherichia coli: MMX#-ATCC# 102.25922
in vivo [4] = details: CD1, mouse, plasma, iv
HeLa cells = experiment: Cytotoxicity testing (CC50, MTS assay)
[5] = in vivo
[6] = Pharmacokinetic study in mice (plasma concentration by LC/MS/MS)
Bacillus anthracis = format: cell-based
Streptococcus pneumoniae = experiment: Antibacterial activity assay (MIC, broth dilution); format: cell-based; details: for MIC Streptococcus pneumoniae (PRSP): MMX#-ATCC# 884-NA, penicillin-resistant; for MIC Streptococcus pneumoniae: MMX#-ATCC# 1195-49619
Burkholderia mallei = format: cell-based; details: 23344; according to DOD guidelines
[7] = In vivo efficacy of BAS00127538 (bacteria in spleen and blood); details: samples collected at 50 hours post-infection from treated animals
Description: To determine the efficacy of […] in vivo, samples were collected from vehicle-treated animals at 20 hours or at 50 hours post-infection from vancomycin- and BAS-treated animals.

Yersinia pestis = format: cell-based; details: CO92; according to DOD guidelines
[8] = system: Burkholderia pseudomallei; format: cell-based; details: K96243; according to DOD guidelines
Pseudomonas aeruginosa = experiment: Antibacterial activity assay (MIC, broth dilution); format: cell-based; details: MMX#-ATCC# 103-27853
Enterococcus faecalis = experiment: Antibacterial activity assay (MIC, broth dilution); format: cell-based; details: for MIC: Enterococcus faecalis, cation-adjusted Mueller Hinton broth, 10% BHI; for MIC Enterococcus faecalis: MMX#-ATCC# 101-29212; for MIC Enterococcus faecalis (VRE): MMX#-ATCC# 848-NA, vancomycin-resistant
[9] = S. aureus USA300 (MRSA), average of two replicates, read-out: MIC SA
[10] = Table 16, CLSI M07-A10 dilution method, read-out: MIC S. aureus
[11] = ATCC 1509 / VRE, text: E. faecium EF1509 (VRE), footnote: Enterococcus faecalis ATCC 1509, average of two replicates, read-out: MIC EF
[12] = Enterococcus faecium, Table 16, CLSI M07-A10 dilution method, read-out: MIC E. faecium
[13] = A. baumannii 2-2-2 (colistin-resistant clinical isolate), average of two replicates, read-out: MIC AB
[14] = Table 16, CLSI M07-A10 dilution method, read-out: MIC A. baumannii
[15] = determined as in Example 1E (MIC)
[16] = IV administration, single dose […], mice (n=3)

COc1ccc2c(c1)[C@]13CCCC[C@@H]1[C@H](C2)N(C)CC3 [dextromethorphan]
intrinsic clearance [1]: 31 µL/min/mg

Cc1ccc(-c2cc(-c3ccc(Cl)cc3)cc(/C=C/c3ccc(N(C)CCO)cc3)[n+]2C)cc1.[I-] [Compound 9p, (E)-4-(4-chlorophenyl)-2-(4-((2-hydroxyethyl)(methyl)amino)styryl)-1-methyl-6-(p-tolyl)pyridin-1-ium iodide]
MIC (Staphylococcus aureus; [9]): 0.25 µg/mL | MIC (Staphylococcus aureus; [10]): 0.25 µg/mL | MIC (Enterococcus faecium; [11]): 2 µg/mL | MIC (Enterococcus faecium; [12]): 2 µg/mL | CC50 at 24 h ([2]; HeLa cells): 5.5 µg/mL | MIC (Acinetobacter baumannii; [13]): 16 µg/mL | MIC (Acinetobacter baumannii; [14]): 16 µg/mL

CN(C)c1ccc(/C=C/c2cc(-c3ccc(F)cc3)cc(-c3ccc(F)cc3)[o+]2)cc1 [Compound 7jc47-1, (E)-2-(4-(dimethylamino)styryl)-4,6-bis(4-fluorophenyl) pyrylium boron tetrafluoride salt]
MTD at 72 h (in vivo [3]): 60 mg/kg | Bacterial Killing S. aureus (Staphylococcus aureus; [15]): 1 | Bacterial Killing E. coli (Escherichia coli; [15]): >64 | Bacterial Killing E. faecium (Enterococcus faecium; [15]): 1 | AUC(0-inf) (in vivo [4]; 10 mg/kg): 578 ± 175 ng·h/mL | Cmax (in vivo [4]; 10 mg/kg): 3220 ± 1500 ng/mL | MRT (in vivo [4]; 10 mg/kg): 1.74 ± 0.49 h | Vd (in vivo [4]; 10 mg/kg): 46.3 ± 12.9 L/kg | half-life (in vivo [4]; 10 mg/kg): ~7 h | cytotoxicity in vitro (HeLa cells): no observable cytotoxicity in vitro | AUCextrap ([5]; CD1, mouse, iv, 10 mg/kg): 2.25 ± 1.13% | Cl3 ([5]; CD1, mouse, iv, 10 mg/kg): 23.6 ± 1.7 mL/min/kg | T1/2 ([6]; mouse, in vivo, iv, 10 mg/kg): 6.81 ± 1.33 h

CCN(CC)c1ccc(/C=C/c2cc(-c3ccc(Br)cc3)cc(-c3ccc(C)c(C)c3)[n+]2C)cc1.[I-] [Compound 9v, (E)-4-(4-bromophenyl)-2-(4-(diethylamino)styryl)-6-(3,4-dimethylphenyl)-1-methylpyridin-1-ium iodide]
MIC (Staphylococcus aureus; [9]): 2 µg/mL | MIC (Staphylococcus aureus; [10]): 2 µg/mL | MIC (Enterococcus faecium; [11]): 4 µg/mL | MIC (Enterococcus faecium; [12]): 4 µg/mL | CC50 at 24 h ([2]; HeLa cells): 5.5 µg/mL | MIC (Acinetobacter baumannii; [13]): 4 µg/mL | MIC (Acinetobacter baumannii; [14]): 4 µg/mL

CN1/C(=C/C=C/c2cc(-c3ccccc3)cc(-c3ccccc3)[o+]2)C(C)(C)c2ccccc21 [BAS00127538, 1-methyl-2,4-diphenyl-6-((1E,3E)-3-(1,3,3-trimethylindolin-2-ylidene)pro-p-1-en-1yl)pyryl-1-ium) tetrafluoroborate]
MIC Bacillus anthracis (spores)* (Bacillus anthracis; Ames, spores, according to DOD guidelines): 0.5 µg/mL | MIC Bacillus anthracis* (Bacillus anthracis; Ames, according to DOD guidelines): 0.5 µg/mL | MIC Bacillus anthracis Sterne (Bacillus anthracis; MMX#-ATCC# 109-NA): 0.5 µg/mL | MIC Staphylococcus aureus (Staphylococcus aureus): 0.5 µg/mL | MIC Escherichia coli (Escherichia coli): 4 µg/mL | MIC Streptococcus pneumoniae (PRSP) (Streptococcus pneumoniae): 8 µg/mL | MIC Streptococcus pneumoniae (Streptococcus pneumoniae): 8 µg/mL | MIC Burkholderia mallei* (Burkholderia mallei): > 64 µg/mL | survival of treated animals [7]: One animal treated with BAS did not survive beyond 28 hours | MIC (Enterococcus faecium; Enterococcus faecium, cation-adjusted Mueller Hinton broth, 10% BHI, read-out: MIC E. faecium C110914): 2 µg/mL | MIC (Enterococcus faecium; Enterococcus faecium, cation-adjusted Mueller Hinton broth, 10% BHI, read-out: MIC E. faecium IH79985): 2 µg/mL | MIC (Enterococcus faecium; Enterococcus faecium, cation-adjusted Mueller Hinton broth, 10% BHI, read-out: MIC E. faecium S1559): 2 µg/mL | half-life (in vivo [4]; male, […]): 0.22 h | MIC Yersinia pestis* (Yersinia pestis): 8 µg/mL | detection in plasma ([5]; mouse, po, 5 mg/kg): could not be detected | MIC Burkholderia pseudomallei* [8]: 64 µg/mL | MIC Pseudomonas aeruginosa (Pseudomonas aeruginosa): > 8 µg/mL | MIC (Enterococcus faecalis; read-out: MIC E. faecalis 51299): 2 µg/mL | MIC (Enterococcus faecalis; read-out: MIC E. faecalis 51575): 2 µg/mL | MIC (Enterococcus faecalis; read-out: MIC E. faecalis C99707): 2 µg/mL | MIC Enterococcus faecalis (Enterococcus faecalis): 1 µg/mL | MIC Enterococcus faecalis (VRE) (Enterococcus faecalis): 1 µg/mL | Cl_obs [6, 16]: 711 mL/min/kg | T1/2 [6, 16]: 0.227 h | Vss_obs [6, 16]: 12.2 L/kg | T1/2 ([6]; comparator values repeated from Table 4 (IV, […])): 0.227 h | AUClast/D ([6]; comparator values repeated from Table 4 (IV, […]), AUClast/D): 26.9 ng·h/mL | volume of distribution ([6]; intravenous administration, single dose […], mice): 12.2 L/kg

CC(=O)NC[C@H]1CN(c2ccc(N3CCOCC3)c(F)c2)C(=O)O1 [Linezolid, linezolid, reference compound]
MIC Staphylococcus aureus (Staphylococcus aureus): 4 µg/mL (≈ 11.9 µM) | MIC Staphylococcus aureus (MRSA) (Staphylococcus aureus; MMX#-ATCC# 757-NA, methicillin-resistant): 4 µg/mL (≈ 11.9 µM) | MIC Escherichia coli (Escherichia coli): > 64 µg/mL | MIC Streptococcus pneumoniae (PRSP) (Streptococcus pneumoniae): 2 µg/mL (≈ 5.93 µM) | MIC Streptococcus pneumoniae (Streptococcus pneumoniae): 2 µg/mL (≈ 5.93 µM) | MIC Pseudomonas aeruginosa (Pseudomonas aeruginosa): > 64 µg/mL | MIC Enterococcus faecalis (Enterococcus faecalis): 2 µg/mL (≈ 5.93 µM) | MIC Enterococcus faecalis (VRE) (Enterococcus faecalis): 2 µg/mL (≈ 5.93 µM)

Cc1ccc(-c2cc(-c3ccc(Br)cc3)cc(/C=C/c3ccc(N(C)C)cc3)[n+]2C)c(C)c1.[I-] [Compound 9s, (E)-4-(4-bromophenyl)-2-(4-(dimethylamino)styryl)-6-(2,4-dimethylphenyl)-1-methylpyridin-1-ium iodide]
MIC (Staphylococcus aureus; [9]): 0.25 µg/mL | MIC (Staphylococcus aureus; [10]): 0.25 µg/mL | MIC (Enterococcus faecium; [11]): 1 µg/mL | MIC (Enterococcus faecium; [12]): 1 µg/mL | CC50 at 24 h [2]: 3.5 µg/mL | MIC (Acinetobacter baumannii; [13]): 16 µg/mL | MIC (Acinetobacter baumannii; [14]): 16 µg/mL
